Literature values, collected in patent US8486889B1, “Composition and method for the treatment and prevention of endothelial dysfunction” (Advanced Medical Instruments, priority 2001, dated 2013).

Columns and labels:
[1] = in a fast dissolving tablet
[2] = 325 mg ASA every other day
[3] = aspirin use
[4] = those on ASA
[5] = 500 mg/day, after one month
[6] = glucosamine combined with an NSAID, activity preserved
[7] = in vivo
[8] = not given; remark: listed apart in the source
[9] = Vioxx compared to naproxen
[10] = rabbit
[11] = rats, intragastric indomethacin, pre-treatment with zinc sulphate
[12] = taken orally, versus placebo
[13] = simultaneous administration of zinc
[14] = 600 mg per day, double-blind trial

CC(=O)Oc1ccccc1C(=O)O [ASA, Acetylsalicylic acid]
ASA absorbed by the buccal mucosa [1]: 16-35%
reduction in the incidence of subsequent myocardial infarction, stroke, and death from cardiovascular causes ([2]; about 5 years): 25%
reduction in the incidence of first myocardial infarction ([2]; about 5 years, 22,000 US male physicians): 44%
time to reach blood levels and inhibit platelet activity (chewing the tablet): 5 min
time to reach peak blood levels (in vivo): 30 min
reduction of the risk of breast cancer [3]: 20%
reduction of the risk of colorectal cancer [3]: 50%
reduction of the risk of lung cancer [3]: 30%
reduction of the risk of prostate cancer [3]: 50%
fewer strokes [4]: 42%

O=C1O[C@H]([C@@H](O)CO)C(O)=C1O [Ascorbic acid]
lowering of systolic blood pressure [5]: 10%

N[C@H]1C(O)O[C@H](CO)[C@@H](O)[C@@H]1O (stereo partly shown) [Glucosamine]
factor of decrease of the amount of NSAID required to produce an antiexudative result [6]: 2-2.7 times
absorbed in the GI tract [7]: 90%
solubility [8]: very soluble in water

COc1ccc2[nH]cc(CCNC(C)=O)c2c1 [Melatonin]
solubility [8]: high lipid and aqueous solubility

CS(=O)(=O)c1ccc(C2=C(c3ccccc3)C(=O)OC2)cc1 [Vioxx, rofecoxib]
risk of myocardial infarction [9]: four fold risk

CNC[C@H](O)c1ccc(O)c(O)c1 [epinephrine, Epinephrine]
time to peak of effectiveness ([10]; 2.5 mg sublingual tablet): 20.8 min
time to peak effectiveness ([10]; injection): 15.8 min

O=S(=O)([O-])[O-].[Zn+2] [zinc sulphate]
mucosal ulcerations [11]: completely prevented
rate of gastric ulcer healing [12]: three times the rate of a placebo

[Zn] [zinc]
salicylate-induced hearing loss [13]: completely prevented

Vitamin E
endothelial-dependent dilation of the brachial artery [14]: showed improvement
